Experimental data published in ChEMBL document CHEMBL4118101 (Bioorg Med Chem, 2018).
Values after ≈ are worked out from the molar mass of the structure shown. Active and inactive are the calls of the source. The rule behind the calls is not given here.

What was measured:
Candida albicans [1] = assay: Antifungal activity against fluconazole/ITC-susceptible Candida albicans ATCC MYA-2876 measured after 48 hrs by CLSI M27-A3 protocol based method; assay type: functional; details: Candida albicans, ATCC MYA-2876, 48 h
Candida albicans [2] = assay: Antifungal activity against fluconazole/ITC-resistant Candida albicans ATCC 90819 measured after 48 hrs by CLSI M27-A3 protocol based method; assay type: functional; details: Candida albicans, ATCC 90819, 48 h; read-out: MIC
Candida albicans [3] = assay: Antifungal activity against fluconazole/ITC-susceptible Candida albicans ATCC MYA-2310 measured after 48 hrs by CLSI M27-A3 protocol based method; assay type: functional; details: Candida albicans, ATCC MYA-2310, 48 h; read-out: MIC
Nakaseomyces glabratus [4] = assay: Antifungal activity against Candida glabrata ATCC 2001 measured after 48 hrs by CLSI M27-A3 protocol based method; assay type: functional, CBS 138; details: Nakaseomyces glabratus, CBS 138, 48 h; read-out: MIC
Candida parapsilosis [5] = assay: Antifungal activity against Candida parapsilosis ATCC 22019 measured after 48 hrs by CLSI M27-A3 protocol based method; assay type: functional; details: Lodderomyces parapsilosis, ATCC 22019, 48 h
Candida albicans [6] = assay: Antifungal activity against Candida albicans ATCC 10231 measured after 48 hrs in presence of 10% FBS by CLSI M27-A3 protocol based method; assay type: functional; details: Candida albicans, ATCC 10231, 48 h
[7] = Hemolytic activity in mouse RBC at 62.5 ug/ml after 1 hr relative to control; assay type: ADME, cell-based, Erythrocyte; details: mouse red blood cells (erythrocytes), read-out: Activity
Cryptococcus neoformans [8] = assay: Antifungal activity against Cryptococcus neoformans isolate CN2 measured after 48 hrs by CLSI M27-A3 protocol based method; assay type: functional; details: Cryptococcus neoformans, isolate CN2, 48 h; read-out: MIC
Candida albicans [9] = assay: Antifungal activity against Candida albicans ATCC 10231 measured after 48 hrs by CLSI M27-A3 protocol based method; assay type: functional; details: ATCC 10231, 48 h
Candida albicans [10] = assay: Antifungal activity against Candida albicans ATCC 64124 measured after 48 hrs by CLSI M27-A3 protocol based method; assay type: functional; details: Candida albicans, ATCC 64124, 48 h; read-out: MIC
Candida albicans [11] = assay: Antifungal activity against fluconazole/ITC-resistant Candida albicans ATCC MYA-1237 measured after 48 hrs by CLSI M27-A3 protocol based method; assay type: functional; details: Candida albicans, ATCC MYA-1237, 48 h; read-out: MIC
Candida albicans [12] = assay: Antifungal activity against fluconazole/ITC-resistant Candida albicans ATCC MYA-1003 measured after 48 hrs by CLSI M27-A3 protocol based method; assay type: functional; details: Candida albicans, ATCC MYA-1003, 48 h; read-out: MIC
Pichia kudriavzevii = assay: Antifungal activity against Candida krusei ATCC 6258 measured after 48 hrs by CLSI M27-A3 protocol based method; assay type: functional; details: Pichia kudriavzevii, ATCC 6258, 48 h
Aspergillus nidulans [13] = assay: Antifungal activity against Aspergillus nidulans ATCC 38163 measured after 48 hrs by CLSI M38-A2 protocol based method; assay type: functional; details: ATCC 38163, 48 h
Aspergillus flavus = assay: Antifungal activity against Aspergillus flavus ATCC MYA-3631 measured after 48 hrs by CLSI M38-A2 protocol based method; assay type: functional; details: ATCC MYA-3631, 48 h
Aspergillus terreus = assay: Antifungal activity against Aspergillus terreus ATCC MYA-3633 measured after 48 hrs by CLSI M38-A2 protocol based method; assay type: functional; details: ATCC MYA-3633, 48 h
Nakaseomyces glabratus [14] = assay: Antifungal activity against Candida glabrata isolate CG1 measured after 48 hrs by CLSI M27-A3 protocol based method; assay type: functional; details: Nakaseomyces glabratus, 48 h; read-out: MIC
Nakaseomyces glabratus [15] = assay: Antifungal activity against Candida glabrata isolate CG2 measured after 48 hrs by CLSI M27-A3 protocol based method; assay type: functional; details: Nakaseomyces glabratus, isolate CG2, 48 h; read-out: MIC
Nakaseomyces glabratus [16] = assay: Antifungal activity against Candida glabrata isolate CG3 measured after 48 hrs by CLSI M27-A3 protocol based method; assay type: functional; details: Nakaseomyces glabratus, 48 h; read-out: MIC
Candida parapsilosis [17] = assay: Antifungal activity against Candida parapsilosis isolate CP1 measured after 48 hrs by CLSI M27-A3 protocol based method; assay type: functional; details: Lodderomyces parapsilosis, isolate CP1, 48 h
Candida parapsilosis [18] = assay: Antifungal activity against Candida parapsilosis isolate CP2 measured after 48 hrs by CLSI M27-A3 protocol based method; assay type: functional; details: Lodderomyces parapsilosis, isolate CP2, 48 h
Cryptococcus neoformans [19] = assay: Antifungal activity against Cryptococcus neoformans isolate CN1 measured after 48 hrs by CLSI M27-A3 protocol based method; assay type: functional; details: isolate CN1, 48 h
Cryptococcus neoformans [20] = assay: Antifungal activity against Cryptococcus neoformans isolate CN3 measured after 48 hrs by CLSI M27-A3 protocol based method; assay type: functional; details: Cryptococcus neoformans, isolate CN3, 48 h; read-out: MIC
Candida parapsilosis [21] = assay: Antifungal activity against Candida parapsilosis isolate CP3 measured after 48 hrs by CLSI M27-A3 protocol based method; assay type: functional; details: Lodderomyces parapsilosis, isolate CP3, 48 h
[22] = Hemolytic activity in mouse RBC at 0.48 ug/ml after 1 hr relative to control; assay type: ADME, cell-based, Erythrocyte; details: mouse red blood cells (erythrocytes), read-out: Activity
[23] = Hemolytic activity in mouse RBC at […] ug/ml after 1 hr relative to control; assay type: ADME, cell-based, Erythrocyte; details: mouse red blood cells (erythrocytes), read-out: Activity
[24] = Hemolytic activity in mouse RBC at 1.95 ug/ml after 1 hr relative to control; assay type: ADME, cell-based, Erythrocyte; details: mouse red blood cells (erythrocytes), at 1.95 µg/mL, read-out: Activity
[25] = Hemolytic activity in mouse RBC at 3.9 ug/ml after 1 hr relative to control; assay type: ADME, cell-based, Erythrocyte; details: mouse red blood cells (erythrocytes), read-out: Activity
[26] = Hemolytic activity in mouse RBC at 7.8 ug/ml after 1 hr relative to control; assay type: ADME, cell-based, Erythrocyte; details: mouse red blood cells (erythrocytes), read-out: Activity
[27] = Hemolytic activity in mouse RBC at 31.3 ug/ml after 1 hr relative to control; assay type: ADME, cell-based, Erythrocyte; details: mouse red blood cells (erythrocytes), at 31.3 µg/mL, read-out: Activity
HEK293 = assay: Cytotoxicity against HEK293 cells at 7.8 ug/ml after 24 hrs by resazurin based assay; assay type: cell-based; details: human, hek293, 24 h
BEAS-2B = assay: Cytotoxicity against human BEAS2B cells up to 7.8 ug/ml after 24 hrs by resazurin based assay; assay type: cell-based
A549 = assay: Cytotoxicity against human A549 cells up to 7.8 ug/ml after 24 hrs by resazurin based assay; assay type: cell-based; details: a549, 24 h
Candida parapsilosis [28] = assay: Antifungal activity against Candida parapsilosis ATCC 22019 measured after 48 hrs in presence of 10% FBS by CLSI M27-A3 protocol based method; assay type: functional; details: Lodderomyces parapsilosis, ATCC 22019, 48 h
Aspergillus nidulans [29] = assay: Antifungal activity against Aspergillus nidulans ATCC 38163 measured after 48 hrs in presence of 10% FBS by CLSI M38-A2 protocol based method; assay type: functional; details: ATCC 38163, 48 h
Candida albicans [30] = assay: Fungistatic activity against Candida albicans ATCC 10231 at 4 times MIC incubated for 24 hrs by time kill assay; assay type: functional, organism-based
Candida parapsilosis [31] = assay: Fungistatic activity against Candida parapsilosis ATCC 22019 up to 4 times MIC incubated for 24 hrs by time kill assay; assay type: functional, organism-based
Candida albicans [32] = assay: Induction of membrane permeabilization in Candida albicans ATCC 10231 assessed as membrane disruption at 4 times MIC after 1 hr by propidium iodide staining based fluorescence microscopy; assay type: functional, organism-based

Row | SMILES | MIC (Candida albicans [1]) [µM] | MIC (Candida albicans [2]) [µM] | MIC (Candida albicans [3]) [µM] | MIC (Nakaseomyces glabratus [4]) [µM] | MIC (Candida parapsilosis [5]) [µM] | MIC (Candida albicans [6]) [µg/mL] | hemolysis at 1 h, 62.5 ug/ml [7] [%] | MIC (Cryptococcus neoformans [8]) [µM] | MIC (Candida albicans [9]) [µM] | MIC (Candida albicans [10]) [µM] | MIC (Candida albicans [11]) [µM] | MIC (Candida albicans [12]) [µM] | MIC (Pichia kudriavzevii) [µM] | MIC (Aspergillus nidulans [13]) [µM] | MIC (Aspergillus flavus) [µM] | MIC (Aspergillus terreus) [µM] | MIC (Nakaseomyces glabratus [14]) [µM] | MIC (Nakaseomyces glabratus [15]) [µM] | MIC (Nakaseomyces glabratus [16]) [µM] | MIC (Candida parapsilosis [17]) [µM] | other results
1 | C[C@@H]1[C@H](O)[C@@H](C)/C=C/C=C/C=C/C=C/C=C/C=C/C=C/[C@H](O[C@@H]2O[C@H](C)[C@@H](O)[C@H](N)[C@@H]2O)C[C@@H]2O[C@](O)(C[C@@H](O)C[C@@H](O)[C@H](O)CC[C@@H](O)C[C@@H](O)CC(=O)O[C@H]1C)C[C@H](O)[C@H]2C(=O)O [AMPHOTERICIN B] | 2.1 (≈ 1.94 µg/mL) | 1.1 (≈ 1.02 µg/mL) | 2.1 (≈ 1.94 µg/mL) | 2.1 (≈ 1.94 µg/mL) | 2.1 (≈ 1.94 µg/mL) | 7.8 | – | – | – | – | – | – | – | – | – | – | – | – | – | – | –
2 | CCCCCCCCCCCCCCCCNCC(O)(Cn1cncn1)c1ccc(F)cc1F (stereo unspecified) | 65.4 (≈ 31.3 µg/mL) | 65.4 (≈ 31.3 µg/mL) | 8.1 to 65.4 (≈ 3.88 to 31.3 µg/mL) | 2 to 65.4 (≈ 0.957 to 31.3 µg/mL) | 1 (≈ 0.479 µg/mL) | – | 8 | 1 (≈ 0.479 µg/mL) | > 65.4 | > 65.4 | > 65.4 | > 65.4 | 8.1 (≈ 3.88 µg/mL) | 8.1 (≈ 3.88 µg/mL) | > 65.4 | > 65.4 | 4.1 (≈ 1.96 µg/mL) | 2 (≈ 0.957 µg/mL) | 16.3 (≈ 7.8 µg/mL) | 2 (≈ 0.957 µg/mL) | MIC (Candida parapsilosis [18]): 1 µM (≈ 0.479 µg/mL); MIC (Cryptococcus neoformans [19]): 1 µM (≈ 0.479 µg/mL); MIC (Cryptococcus neoformans [20]): 1 µM (≈ 0.479 µg/mL); MIC (Candida parapsilosis [21]): 2 µM (≈ 0.957 µg/mL); hemolysis at 1 h, 0.48 ug/ml [22]: 4%; hemolysis at 1 h, 0.975 ug/ml [23]: 5%; hemolysis at 1 h, 15.6 ug/ml [23]: 4%; hemolysis at 1 h, 1.95 ug/ml [24]: 6%; hemolysis at 1 h, 3.9 ug/ml [25]: 3%; hemolysis at 1 h, 7.8 ug/ml [26]: 4%; hemolysis at 1 h, 31.3 ug/ml [27]: 4%; Activity (HEK293): Non-Toxic; Activity (BEAS-2B): Non-Toxic; Activity (A549): Non-Toxic
3 | CCCCCCCCCCNCC(O)(Cn1cncn1)c1ccc(F)cc1F (stereo unspecified) | 9.9 (≈ 3.91 µg/mL) | 9.9 (≈ 3.91 µg/mL) | 19.8 (≈ 7.81 µg/mL) | 1.2 to 2.5 (≈ 0.473 to 0.986 µg/mL) | 0.08 (≈ 0.0316 µg/mL) | 0.48 | 100 | 0.61 (≈ 0.241 µg/mL) | 1.2 (≈ 0.473 µg/mL) | 39.5 (≈ 15.6 µg/mL) | 19.8 (≈ 7.81 µg/mL) | 19.8 (≈ 7.81 µg/mL) | 1.2 (≈ 0.473 µg/mL) | 2.5 (≈ 0.986 µg/mL) | 19.8 (≈ 7.81 µg/mL) | 9.9 (≈ 3.91 µg/mL) | 4.9 (≈ 1.93 µg/mL) | 1.2 (≈ 0.473 µg/mL) | 9.9 (≈ 3.91 µg/mL) | 0.15 (≈ 0.0592 µg/mL) | MIC (Candida parapsilosis [18]): 0.3 µM (≈ 0.118 µg/mL); MIC (Cryptococcus neoformans [19]): 0.61 µM (≈ 0.241 µg/mL); MIC (Cryptococcus neoformans [20]): 1.2 µM (≈ 0.473 µg/mL); MIC (Candida parapsilosis [21]): 0.61 µM (≈ 0.241 µg/mL); MIC (Candida parapsilosis [28]): 0.06 µg/mL; MIC (Aspergillus nidulans [29]): 1.95 µg/mL; Activity (Candida albicans [30]): Active; Activity (Candida parapsilosis [31]): Active; hemolysis at 1 h, 0.48 ug/ml [22]: 0%; hemolysis at 1 h, 0.975 ug/ml [23]: 0%; hemolysis at 1 h, 15.6 ug/ml [23]: 33%; hemolysis at 1 h, 1.95 ug/ml [24]: 2%; hemolysis at 1 h, 3.9 ug/ml [25]: 3%; hemolysis at 1 h, 7.8 ug/ml [26]: 8%; hemolysis at 1 h, 31.3 ug/ml [27]: 92%; Activity (HEK293): Non-Toxic; Activity (Candida albicans [32]): inactive
